Laboratory results published in US8829033B2, “N-benzylamide substituted derivatives of 2-(acylamido)acetic acid and 2-(acylamido)propionic acids: potent neurological agents” (The University of North Carolina at Chapel Hill, priority 2009, dated 2014).
Where two headings read alike, the source gives them in different places.

Tests used:
Mice [1] = assay: Maximal electroshock seizure (MES) test, mice (ip);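 note: male albino CF No. 1 mice dosed ip, MES stimulus 50 mA at 60 Hz lasting 0.2 s, efficacy endpoint is loss of hind leg tonic extension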
Description: (§2) The maximal electroconvulsive shock (MES) test is regarded as a standard screen for anticonvulsant activity in terms of inhibition of seizure spread in generalized tonic-clonic seizures.
(§3) Groups of at least 8 male albino CF No. 1 mice or male albino Sprague-Dawley rats are treated with 10 mL/kg i.p. or 4 mL/kg p.o. of the test compound solution, respectively. The electrical stimulus in the MES test is 50 mA at 60 Hz for mice and 150 mA at 60 Hz for rats, both delivered for 0.2 sec. Abolition of the hind leg tonic extensor component of the seizure is used as the endpoint.

[2] = Neurological toxicity, rotorod test, mice (ip); format: in vivo; conditions: male, CF No 1, mouse, in vivo
Description: (§1) Tests are conducted in groups of at least 8 mice or rats to determine the intrinsic neurotoxicity (neuromuscular impairment) after administration of the test compound by the route of administration to be used in the pharmacology studies. Neurotoxicity is determined in male CF No 1 mice by the rotarod procedure. Inability of the mouse to maintain its equilibrium in 3 trials during 1 min on this rotating rod (6 rpm) is used as an indication of such impairment. In Sprague-Dawley rats, minimal motor impairment (MMI) is determined by overt evidence of ataxia, abnormal gait, and stance.

Mice [3] = assay: 6 Hz test, mice (ip); format: in vivo; conditions: Mus musculus, ip, intraperitoneally
Mice [4] = assay: Neurological toxicity, rotorod test, mice (ip); format: in vivo; conditions: for Mice (ip) Tox, Td50: rotorod test; for Mice (ip) Tox, TD50: Table b500, rotorod test
Description: as §1

Mice [5] = assay: Formalin test (mice, ip); format: in vivo; conditions: for Formalin Assay Acute (%) / Formalin Assay Inflam. (%): mice, ip; for Formalin Test (mice, ip) Inflammatory (%): duration of licking as percent of control, late phase
Description: Compounds of the present invention were active in treating pain in a formalin test carried out in accordance with standard techniques, as described in S. Hunskaar et al., J. Neurosci. Methods 14: 69-76 (1985). Briefly, 0.5% formalin is injected into the mouse hind paw to elicit a bi-phasic licking response, where the first acute phase is thought to correspond to the direct stimulation of peripheral fibers and the second (inflammatory) phase is caused by the release of inflammatory mediators.
Spinal/supraspinal plasticity of nociception is considered as a molecular basis for neuropathic pain particularly during the second (late) phase of the test (Dubuisson & Dennis, 1977; Coderre et al., 1990; Coderre & Melzack, 1992), during which most clinically used drugs against neuropathic pain are active.

Rat [6] = assay: Maximal electroshock seizure (MES) test, rat (po); format: in vivo; conditions: for ED50: read-out: Rat (po) MES, ED50
Description: as §2, §3

Rat [7] = assay: Behavioral toxicity, rat (po); format: in vivo; conditions: behavioral toxicity
Description: as §1

Rats = assay: Hippocampal kindling test, rats (ip); format: in vivo; conditions: for ED50: Rattus norvegicus, ip, read-out: Hippocampal Kindled Rats (ip) ED50 (interval)
Description: The kindling model provides a tool to predict a test compound's activity in complex partial seizures.
Male albino Sprague-Dawley rats (n=8) are kindled to a Stage 5 behavioral seizure. They are treated with an appropriate i.p. dose of the test compound after a 1-week, stimulus-free period. The test compound is evaluated for its effect on kindled motor seizures (seizures scores of 4 and 5), limbic behavior seizures (seizure scores between 1 and 3) and after-discharge duration. After 15 min, each rat is stimulated every 30 min for 3-4 h. Following each stimulation, individual seizure scores and after-discharge duration are recorded. The group mean and standard error of the mean (SEM) are calculated for each parameter.

Rat [8] = conditions: cited from earlier work
Mice [9] = conditions: cited from earlier work
[10] = rotorod test, read-out: Mice (ip) Tox, Td50
[11] = rotorod test, read-out: Mice (ip) Tox, TD50
[12] = Table b502, protective index (TD50/ED50)

COC[C@H](NC(C)=O)C(=O)NCc1ccc(OCc2cccc(F)c2)cc1 [(S)-3, (S)-2-Acetamido-N-(4-(3-fluorobenzyloxy)benzyl)-3-methoxypropanamide]
Mice (ip) MES, ED50 (Mice [1]; ip): >300 [0.5]

COC[C@@H](NC(C)=O)C(=O)NCc1ccc(/C=C/c2cccc(F)c2)cc1 [(R)-14, (2-R,E)-N-4-(3-Fluorostyryl)benzyl 2-Acetamido-3-methoxypropionamide]
TD50 [2, 10]: 100 to 300 mg/kg
melting point: 206 to 208 °C
Mice (ip) MES, ED50 (Mice [1]; Table b501, intraperitoneally): >30, <100 [0.5] mg/kg
ED50 (Mice [3]): < 30 mg/kg

CC(=O)NC(C(=O)NCc1ccc(C)cc1)c1ccccc1 (centres unmarked) [D, reference compound]
MES ED50 (Mice [1]; ip): ~300 mg/kg

COC[C@@H](NC(C)=O)C(=O)NCc1ccc(COCc2cccc(F)c2)cc1 [(R)-18, (R)—N-4-(((3-Fluoro)benzyloxy)methyl)benzyl 2-Acetamido-3-methoxypropionamide]
Mice (ip) Tox, Td50 (Mice [4]): >30, <100 [0.5] mg/kg
Mice (ip) MES, ED50 (Mice [1]; Table b501, intraperitoneally): >30, <100 [0.5] mg/kg

CC(=O)N[C@@H](C(=O)NCc1ccc(OCc2cccc(F)c2)cc1)C(C)(C)C
melting point: 64 to 66 °C

COC[C@H](NC(C)=O)C(=O)NCc1ccc(N=[N+]=[N-])cc1 [(S)-5, (S)—N-(4-Azidobenzyl)-2-acetamido-3-methoxypropanamide]
TD50 ([2]; read-out: Mice (ip) Tox, TD50): > 300 mg/kg
melting point: 149 to 150 °C

COC[C@@H](NC(C)=O)C(=O)NCc1ccc(N=[N+]=[N-])cc1 [(R)-5, (R)—N-(4-Azidobenzyl)-2-acetamido-3-methoxypropanamide]
Formalin Assay Acute (%) (Mice [5]; dose 8.0 (mg)): 59%
Formalin Assay Inflam. (%) (Mice [5]; dose 8.0 (mg)): 106%
Rat (po) PI (Rat [6]; PI=TD50/ED50): >64
melting point: 149 to 150 °C
Mice (ip) PI (Mice [1]; ip, PI=TD50/ED50): 5.5

CC(=O)NC(C(=O)NCc1ccc(OCc2cccc(F)c2)cc1)c1ccccn1 (racemic) [(R, S)-9, N-4-(3-Fluorobenzyloxy)benzyl 2-Acetamido-2-(pyridin-2-yl)acetamide]
TD50 [2, 11]: 210 mg/kg
Rat (po) Tox, TD50 (Rat [7]; Table b500, orally): >30 [4] mg/kg
melting point: 154 to 155 °C

COC[C@@H](NC(C)=O)C(=O)NCc1ccc(C#Cc2cccc(F)c2)cc1 [(R)-15, (R)—N-4-((3-Fluorophenyl)ethynyl)benzyl 2-Acetamido-3-methoxypropionamide]
TD50 [2, 10]: 100 to 300 mg/kg
ED50 (Rat [6]; orally): 1.4 mg/kg
melting point: 200 to 202 °C
Mice (ip) MES, ED50 (Mice [1]; Table b501, intraperitoneally): >30, <100 [1.0, 4.0] mg/kg

COC[C@@H](NC(C)=O)C(=O)NCc1ccc(CCc2cccc(F)c2)cc1 [(R)-13]
TD50 [2, 10]: 30 to 100 mg/kg
Rat (po) Tox, TD50 (Rat [7]; Table b501, orally): >30 [1] mg/kg
melting point: 134 to 136 °C
Mice (ip) MES, ED50 (Mice [1]; Table b501, intraperitoneally): >10, <30 [0.5] mg/kg

CC(=O)NC(C(=O)NCc1ccccc1)c1ccccc1 (centres unmarked) [C, reference compound]
MES ED50 (Mice [1]; ip): 32 mg/kg

COC[C@@H](NC(C)=O)C(=O)NCc1ccc(NCc2cccc(F)c2)cc1 [(R)-17, (R)—N-4-(3-Fluorobenzylamino)benzyl 2-Acetamido-3-methoxypropionamide]
TD50 [2, 10]: 30 to 100 mg/kg
melting point: 78 to 81 °C
Mice (ip) MES, ED50 (Mice [1]; Table b501, intraperitoneally): >10, <30 [0.5] mg/kg

COC[C@@H](NC(C)=O)C(=O)NCc1ccc(OCc2ccccc2F)cc1 [(R)-21, (R)—N-4-(2-Fluorobenzyloxy)benzyl 2-Acetamido-3-methoxypropionamide]
TD50 [2, 11]: 37 mg/kg
Rat (po) PI (Rat [6]; [12]): >45
melting point: 173 to 174 °C
Mice (ip) MES, ED50 (Mice [1]; Table b502, intraperitoneally): 6.7 [0.25] (4.8-9.1) mg/kg

COC[C@@H](NC(C)=O)C(=O)NCc1ccc(OCCc2cccc(F)c2)cc1 [(R)-19, (R)—N-4′-((3″-Fluoro)phenethoxy)benzyl 2-N-Acetamido-3-methoxypropionamide]
TD50 [2, 10]: 30 to 100 mg/kg
melting point: 147 to 148 °C
Mice (ip) MES, ED50 (Mice [1]; Table b501, intraperitoneally): >30, <100 [0.5, 4.0] mg/kg

COC[C@@H](NC(C)=O)C(=O)NCc1ccccc1 [H, reference compound]
Formalin Assay Acute (%) (Mice [5]; dose 16 (mg)): 100%
Formalin Assay Inflam. (%) (Mice [5]; dose 16 (mg)): 44%

COC[C@@H](NC(C)=O)C(=O)NCc1ccc([N+](=O)[O-])cc1 [F, reference compound]
MES ED50 (Mice [1]; ip): >100, <300 mg/kg

CCC1(c2ccccc2)C(=O)NC(=O)NC1=O [phenobarbital]
ED50 (Rats): 20 mg/kg

COCc1ccc(CNC(=O)[C@@H](COC)NC(C)=O)cc1
melting point: 119 to 120 °C

COC[C@@H](NC(C)=O)C(=O)NCc1ccc(COc2cccc(F)c2)cc1 [(R)-16, (R)—N-4-((3-Fluorophenoxy)methyl)benzyl 2-Acetamido-3-methoxypropionamide]
Mice (ip) Tox, Td50 (Mice [4]): 10 [0.25] mg/kg
Rat (po) PI (Rat [6]; Table b501, protective index (TD50/ED50)): >21
Mice (ip) MES, ED50 (Mice [1]; Table b501, intraperitoneally): 5.9 [0.25] mg/kg
Mice (ip) PI (Mice [1]; Table b501, ip, protective index (TD50/ED50)): 1.8

CC(=O)N[C@H](C)C(=O)NCc1ccc(OCc2cccc(F)c2)cc1
melting point: 158 °C

COC[C@@H](NC(C)=O)C(=O)NCc1ccc(OCc2ccccc2)cc1 [(R)-20, (R)—N-4′-(Benzyloxy)benzyl 2-N-Acetamido-3-methoxypropionamide]
TD50 [2, 11]: 22 mg/kg
ED50 (Rat [6]; Rattus norvegicus, Table b502, orally): 5.6 mg/kg
Rat (po) PI (Rat [6]; [12]): >45
Rat (po) Tox, TD50 (Rat [7]; Table b502, orally): >250 [1.0] mg/kg
melting point: 149 °C
Mice (ip) MES, ED50 (Mice [1]; Table b502, intraperitoneally): 5.8 [0.25] (4.4-7.2) mg/kg
Mice (ip) PI (Mice [1]; Table b502, ip, protective index (TD50/ED50)): 3.8

CCCC(CCC)C(=O)O [valproate]
ED50 (Rats; rats): 214 mg/kg
Rat (po) MES, ED50 (Rat [8]; Ref 16, 32): 490 [0.5] mg/kg
Rat (po) PI (Rat [8]; Ref 32): 0.6
Rat (po) MES, ED50 (Rat [8]; reference drugs marked h): 490 [0.5]
Rat (po) PI (Rat [8]; reference drugs marked h): 0.6
Mice (ip) Mes, ED50 (Mice [9]; Ref 30, 16, 32): 270 [0.25] mg/kg
Mice (ip) PI (Mice [9]; Ref 32): 1.6
Mice (ip) MES, ED50 (Mice [9]; reference drugs marked h): 270 [0.25]
Mice (ip) PI (Mice [9]; reference drugs marked h): 1.6
Formalin Test (mice, ip) Inflammatory (%) (Mice [5]; dose 300 mg/kg): 67 (20) %

COC[C@@H](NC(C)=O)C(=O)NCc1ccccc1 [(R)-B, (2R)-2-(acetylamino)-N-benzyl-3-methoxypropanamide, reference compound]
ED50 (Rats): 14 mg/kg
Formalin Test (mice, ip) Inflammatory (%) (Mice [5]; dose 5 mg/kg): 31 [<0.01] %

CC(=O)N[C@@H](C)C(=O)NCc1ccc(OCc2cccc(F)c2)cc1 [(S)-6, (S)—N-4-(3-Fluorobenzyloxy)benzyl 2-Acetamidopropionamide]
Mice (ip) Tox, TD50 (Mice [4]): >300 [0.5] mg/kg
Rat (po) Tox, TD50 (Rat [7]; Table b500, orally): >30 [0.25 to mg/kg
melting point: 153 to 154 °C

O=C1NC(=O)C(c2ccccc2)(c2ccccc2)N1 [phenytoin]
ED50 (Rats; rats): 34 mg/kg
Preliminary Hippocampal Kindling Test (Rats) Seizure Score, Drug (Rats; rats, after drug (pre-drug score in neighbouring column)): 3
Rat (po) MES, ED50 (Rat [8]; Ref 16, 32): 30 [4.0] mg/kg
Rat (po) PI (Rat [8]; Ref 32): >100
Rat (po) MES, ED50 (Rat [8]; reference drugs marked h): 30 [4]
Rat (po) PI (Rat [8]; reference drugs marked h): >100
Formalin Test (mice, ip) Inflammatory (%) (Mice [5]; dose 6 mg/kg): 21 (5) %

CC(=O)NCC(=O)NCc1ccc(OCc2cccc(F)c2)cc1 [compound 5, N-4-(3-Fluorobenzyloxy)benzyl 2-Acetamidoacetamide]
Rat (po) PI (Rat [6]; Table b500, protective index (TD50/ED50)): >16
Rat (po) Tox, TD50 (Rat [7]; Table b500, orally): >500 [1.0] mg/kg

COCCCc1ccc(CNC(=O)[C@@H](COC)NC(C)=O)cc1
melting point: 105 to 107 °C

COC[C@@H](NC(C)=O)C(=O)NCc1ccc(OCc2ccc(F)cc2)cc1 [(R)-22, (R)—N-4-(4-Fluorobenzyloxy)benzyl 2-Acetamido-3-methoxypropionamide]
TD50 [2, 11]: 30 to 100 mg/kg
Rat (po) PI (Rat [6]; [12]): >86
melting point: 166 to 167 °C
Mice (ip) MES, ED50 (Mice [1]; Table b502, intraperitoneally): >10, <30 [0.5] mg/kg

COC[C@H](NC(C)=O)C(=O)NCc1ccc(OCc2cccc(F)c2)cc1 [(S)-10, (S)-2-Acetamido-N-(4-(3-fluorobenzyloxy)benzyl)-3-methoxypropanamide]
Mice (ip) Tox, TD50 (Mice [4]): >300 mg/kg
Mice (ip) Mes, ED50 (Mice [1]; Table b500, intraperitoneally): >300 mg/kg
